Source: patent US20250368647A1, “NITROGEN CONTAINING CONDENSED 2,3-DIHYDROQUINAZOLINONE COMPOUNDS AS NAV1.8 INHIBITORS” (GLAXOSMITHKLINE INTELLECTUAL PROPERTY DEVELOPMENT LIMITED, priority 2022, published 2025)
Like-named read-outs stand apart in the source and are kept apart here.

Key:
human Nav1.8 = human Nav1.8 (Homo sapiens (Human), UniProt Q9Y5Y9); assay: QPatch 48 HTX voltage-clamp electrophysiology, half inactivation state (V1/2) protocol, HEK293-Nav1.8 cells; assay type: cell-based; conditions: HEK293 cells expressing human Nav1.8, human Navβ1 and human TREK1, P2 current
How it was run: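 HEK293 cells co-expressing Navβ1 and TREK1 were voltage-clamped from −100 mV: a 20 ms step to 0 mV, 8 s inactivation at −46 mV, 20 ms at −100 mV, then a 20 ms P2 test step to 0 mV, repeated every 15 s. P2 current was normalized to vehicle and full block, corrected for run-down, and Hill-fitted (4–6 concentrations) for IC50.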

human Nav1.8, sequence (Q9Y5Y9 whole entry): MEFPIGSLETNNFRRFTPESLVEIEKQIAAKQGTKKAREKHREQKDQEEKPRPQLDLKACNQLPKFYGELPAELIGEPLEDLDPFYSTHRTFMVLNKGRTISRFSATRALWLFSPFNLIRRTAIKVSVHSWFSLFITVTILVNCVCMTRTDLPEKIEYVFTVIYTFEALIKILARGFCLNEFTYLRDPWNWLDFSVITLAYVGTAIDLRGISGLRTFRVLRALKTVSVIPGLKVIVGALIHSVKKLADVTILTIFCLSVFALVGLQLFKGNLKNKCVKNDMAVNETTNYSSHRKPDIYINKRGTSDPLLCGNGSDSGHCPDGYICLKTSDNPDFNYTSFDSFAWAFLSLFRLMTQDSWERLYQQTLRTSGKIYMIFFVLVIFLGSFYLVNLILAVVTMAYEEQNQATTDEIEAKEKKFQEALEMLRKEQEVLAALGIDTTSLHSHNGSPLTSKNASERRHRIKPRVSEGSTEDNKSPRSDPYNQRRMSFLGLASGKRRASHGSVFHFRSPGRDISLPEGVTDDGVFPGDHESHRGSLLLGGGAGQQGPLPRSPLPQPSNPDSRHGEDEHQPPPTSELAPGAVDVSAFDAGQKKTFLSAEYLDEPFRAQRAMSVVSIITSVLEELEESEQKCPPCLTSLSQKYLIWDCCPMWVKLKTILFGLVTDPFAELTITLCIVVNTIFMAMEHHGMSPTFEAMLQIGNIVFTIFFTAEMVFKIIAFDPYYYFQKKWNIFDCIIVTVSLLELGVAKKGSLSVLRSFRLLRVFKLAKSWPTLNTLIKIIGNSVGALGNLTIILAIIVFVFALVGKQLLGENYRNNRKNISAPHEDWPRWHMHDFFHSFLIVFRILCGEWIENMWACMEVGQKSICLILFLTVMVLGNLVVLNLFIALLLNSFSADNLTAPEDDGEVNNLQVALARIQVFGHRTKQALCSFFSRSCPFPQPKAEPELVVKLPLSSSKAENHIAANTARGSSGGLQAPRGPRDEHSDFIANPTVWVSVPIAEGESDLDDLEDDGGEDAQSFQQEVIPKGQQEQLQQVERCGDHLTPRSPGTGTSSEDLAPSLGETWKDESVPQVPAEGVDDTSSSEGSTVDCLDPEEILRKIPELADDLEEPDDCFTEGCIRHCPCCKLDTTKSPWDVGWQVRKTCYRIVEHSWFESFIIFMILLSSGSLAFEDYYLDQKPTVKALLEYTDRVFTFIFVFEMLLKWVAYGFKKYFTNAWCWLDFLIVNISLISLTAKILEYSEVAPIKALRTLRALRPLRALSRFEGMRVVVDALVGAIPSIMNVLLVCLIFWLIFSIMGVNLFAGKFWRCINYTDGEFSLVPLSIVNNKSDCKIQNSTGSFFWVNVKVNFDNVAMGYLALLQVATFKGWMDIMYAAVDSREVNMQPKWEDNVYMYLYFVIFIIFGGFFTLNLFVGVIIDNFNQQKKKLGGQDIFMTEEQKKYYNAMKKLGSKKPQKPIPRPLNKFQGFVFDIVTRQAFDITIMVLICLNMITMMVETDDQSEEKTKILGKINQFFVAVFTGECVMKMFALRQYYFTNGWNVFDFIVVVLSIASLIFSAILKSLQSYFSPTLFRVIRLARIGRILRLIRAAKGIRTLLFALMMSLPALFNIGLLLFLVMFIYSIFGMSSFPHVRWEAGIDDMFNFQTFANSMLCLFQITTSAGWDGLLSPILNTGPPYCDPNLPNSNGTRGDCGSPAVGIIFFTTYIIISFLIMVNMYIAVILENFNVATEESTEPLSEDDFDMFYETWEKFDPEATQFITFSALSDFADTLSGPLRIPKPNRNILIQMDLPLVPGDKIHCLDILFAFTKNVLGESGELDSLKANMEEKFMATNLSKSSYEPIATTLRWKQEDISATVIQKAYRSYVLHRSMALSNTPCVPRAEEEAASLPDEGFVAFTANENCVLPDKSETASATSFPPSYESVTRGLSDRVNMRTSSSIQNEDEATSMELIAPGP
human Nav1.8, sequence (Q07699 19-218 partner): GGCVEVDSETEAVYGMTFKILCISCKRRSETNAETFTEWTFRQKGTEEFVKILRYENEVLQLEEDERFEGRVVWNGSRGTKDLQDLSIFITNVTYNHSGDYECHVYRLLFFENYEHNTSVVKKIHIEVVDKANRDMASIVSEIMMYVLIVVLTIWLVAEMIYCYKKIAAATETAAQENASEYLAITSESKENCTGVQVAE

3^4-fluoro-1^6-methoxy-2^7-(trifluoromethyl)-2^1,2^2,2^3,2^4-tetrahydro-4-oxa-2(3,1)-quinazolina-1(3,2)-pyridina-3(1,2)-benzenacyclo octaphane-6-en-2^4-one
ring closure, isolated yield (rcm bond, 12-membered ring, Hoveyda-Grubbs M722 (Grubbs C711), 80.0 °C): 7%

O=C1c2cc(C(F)(F)F)ccc2N2CN1c1ccncc1CC=CCCc1cc(F)ccc12
ring closure, isolated yield (from C=CCCc1cc(F)ccc1N1CN(c2ccncc2CC=C)C(=O)c2cc(C(F)(F)F)ccc21, rcm bond, 12-membered ring, Greencat-iPr, DCE, 80.0 °C, 4.0 h): 40%

COc1ccc2c(n1)NCCOCc1cc(F)ccc1N1CN2C(=O)c2cc(F)c(C(F)(F)F)cc21
ring closure, isolated yield (from COc1ccc(N2CN(c3ccc(F)cc3COCCN)c3cc(C(F)(F)F)c(F)cc3C2=O)c(Br)n1, cn_pd bond, 12-membered ring, Pd2(dba)3/BINAP/NaOtBu, toluene, 46.4 mM, 100.0 °C, 4.0 h): 37%

COc1ccc2c(n1)C(C)(C)CN(C(=O)OC(C)(C)C)Cc1cc(F)ccc1Nc1cc(C(F)(F)F)c(F)cc1C(=O)N2
ring closure, isolated yield (from COC(=O)c1cc(F)c(C(F)(F)F)cc1Nc1ccc(F)cc1CN(CC(C)(C)c1nc(OC)ccc1N)C(=O)OC(C)(C)C, amide bond, 13-membered ring, LiHMDS, THF, 104.0 mM, 16.0 h): 46%

COc1ccc2c(n1)CC=CCc1cc(F)ccc1N1CN2C(=O)c2ccc(C(F)(F)F)cc21
ring closure, isolated yield (from C=CCc1cc(F)ccc1N1CN(c2ccc(OC)nc2CC=C)C(=O)c2ccc(C(F)(F)F)cc21, rcm bond, 11-membered ring, Hoveyda-Grubbs II (20 mol%), DCE, 8.6 mM, 80.0 °C, 16.0 h): 52%

COc1ccc2c(n1)C=CCCc1cc(F)ccc1N1CN2C(=O)c2cc(C(F)(F)F)ncc21
ring closure, isolated yield (from C=CCCc1cc(F)ccc1N1CN(c2ccc(OC)nc2/C=C\C)C(=O)c2cc(C(F)(F)F)ncc21, rcm bond, 11-membered ring, Hoveyda-Grubbs II, DCE, 80.0 °C, 18.5 h): 3%

COc1ccc2c(n1)C=CCc1cc(F)ccc1N1CN2C(=O)c2cc(C(F)(F)F)ccc21
ring closure, isolated yield (from C=CCc1cc(F)ccc1N1CN(c2ccc(OC)nc2C=C)C(=O)c2cc(C(F)(F)F)ccc21, rcm bond, 10-membered ring, Hoveyda-Grubbs II (20 mol%), DCE, 1.38 mM, 80.0 °C, 4.0 h): 72%

COc1ccc2c(n1)CCC=CCc1cc(F)ccc1N1CN2C(=O)c2cc(Cl)cnc21
ring closure, isolated yield (from C=CCCc1nc(OC)ccc1N1CN(c2ccc(F)cc2CC=C)c2ncc(Cl)cc2C1=O, rcm bond, 12-membered ring, Hoveyda-Grubbs II, DCE, 80.0 °C, 1.0 h): 51%

COc1ccc2c(n1)CC=CCc1cc(F)ccc1N1CN2C(=O)c2cc(C(F)(F)F)ccc21
ring closure, isolated yield (from C=CCc1cc(F)ccc1N1CN(c2ccc(OC)nc2CC=C)C(=O)c2cc(C(F)(F)F)ccc21, rcm bond, 11-membered ring, Hoveyda-Grubbs II (20 mol%), DCE, 8.6 mM, 80.0 °C, 16.0 h): 68%

COc1ccc2c(n1)N(C(=O)OC(C)(C)C)CCCc1cc(F)ccc1Nc1ccc(C(F)(F)F)cc1C(=O)N2
ring closure, isolated yield (from COc1ccc(N)c(N(CCCc2cc(F)ccc2Nc2ccc(C(F)(F)F)cc2C(=O)O)C(=O)OC(C)(C)C)n1, amide bond, 13-membered ring, PyOxim/DIEA, DMF, 95.4 mM, 2.0 h): 80%

COc1ccc2c(n1)NCCCCc1cc(F)ccc1N1CN2C(=O)c2cc(C(F)(F)F)ccc21
ring closure, isolated yield (from COc1ccc(N2CN(c3ccc(F)cc3CCCCN)c3ccc(C(F)(F)F)cc3C2=O)c(Br)n1, cn_pd bond, 12-membered ring, Pd2(dba)3/BINAP/NaOtBu, toluene, 71.0 mM, 90.0 °C, 3.0 h): 40%

COc1ccc2c(n1)CC=CCCc1cc(F)ccc1N1CN2C(=O)c2cc(C(F)(F)F)ccc21
ring closure, isolated yield (from C=CCCc1cc(F)ccc1N1CN(c2ccc(OC)nc2CC=C)C(=O)c2cc(C(F)(F)F)ccc21, rcm bond, 12-membered ring, Hoveyda-Grubbs II (20 mol%), DCE, 50.3 mM, 80.0 °C, 18.0 h): 67%

COc1ccc(NC(=O)c2cc(Cl)c(F)cc2Br)c(N(CCCc2cc(F)ccc2N)C(=O)OC(C)(C)C)n1
ring closure, isolated yield (the molecule shown is the open-chain precursor, other bond, 13-membered ring, CuI/DIEA, DMF, 21.9 mM, 95.0 °C): 29%

COc1ccc2c(n1)N(C(=O)OC(C)(C)C)CCCc1c(ccc(F)c1F)Nc1cc(C(F)(F)F)c(F)cc1C(=O)N2
ring closure, isolated yield (from COc1ccc(N)c(N(CCCc2c(Nc3cc(C(F)(F)F)c(F)cc3C(=O)O)ccc(F)c2F)C(=O)OC(C)(C)C)n1, amide bond, 13-membered ring, PyOxim/DIEA, DMF, 129.0 mM, 24.0 h): 72%

CC1(C)CNCc2cc(F)ccc2N2CN(C(=O)c3cc(F)c(C(F)(F)F)cc32)c2ccc(=O)[nH]c21 [Example 134, 2,8-Difluoro-13,13-dimethyl-3-(trifluoromethyl)-10,11,12,13-tetrahydro-19H-5,18-methanodibenzo[c,f]pyrido[3,2-j][1,5,9]triazacyclotridecine-15,19(14H)-dione]
Nav1.8, pIC50 (human Nav1.8): 7.3

O=C1c2ccc(C(F)(F)F)cc2N2CN1c1ccc(=O)[nH]c1CCCCOc1cc(F)ccc12 [Example 18, 3^4-Fluoro-2^7-(trifluoromethyl)-1^1,1^2,2^1,2^2,2^3,2^4-hexahydro-4-oxa-2(3,1)-quinazolina-1(5,6)-pyridina-3(1,2)-benzenacyclooctaphane-1^2,2^4-dione]
Nav1.8, pIC50 (human Nav1.8): 6.5

Cl.[2H]C1([2H])N2C(=O)c3cc(F)c(F)cc3N1c1ccc(F)c(Cl)c1CNCCc1[nH]c(=O)ccc12 [Example 65, 9-Chloro-2,3,8-trifluoro-10,11,12,13-tetrahydro-19H-5,18-methanodibenzo[c,f]pyrido[3,2-j][1,5,9]triazacyclotridecine-15,19(14H)-dione-20,20-d2 hydrochloride]
Nav1.8, pIC50 (human Nav1.8): 8.3

C[C@H]1NCCc2[nH]c(=O)ccc2N2CN(c3ccc(C(F)(F)F)cc3C2=O)c2ccc(F)cc21 [Example 115, (10R)-8-fluoro-10-methyl-2-(trifluoromethyl)-10,11,12,13-tetrahydro-19H-5,18-methanodibenzo[c,f]pyrido[3,2-j][1,5,9]triazacyclotridecine-15,19(14H)-dione]
IC50 (human Nav1.8; read-out: Nav1.8, pIC50 (converted)): 100 nM

Cc1c(F)ccc2c1CNCCc1[nH]c(=O)ccc1N1CN2c2cc(C#N)c(F)cc2C1=O.Cl [Example 71, 2,8-Difluoro-9-methyl-15,19-dioxo-10,11,12,13,14,15-hexahydro-19H-518-methanodibenzo-[c,f]pyrido[3,2-j][1,5,9]triazacyclotridecine-3-carbonitrile hydrochloride]
Nav1.8, pIC50 (human Nav1.8): 7.6

O=C1c2cc(C(F)(F)F)ccc2N2CN1c1ccc(=O)[nH]c1NCCCCc1cc(F)ccc12 [Example 11, 3^4-Fluoro-2^6-(trifluoromethyl)-1^1,1^2,2^1,2^2,2^3,2^4-hexahydro-8-aza-2(3,1)-quinazolina-1(5,6)-pyridina-3(1,2)-benzenacyclooctaphane-1^2,2^4-dione]
Nav1.8, pIC50 (human Nav1.8): 7.3

O=C1c2cc(Cl)c(F)cc2N2CN1c1ccc(=O)[nH]c1NCCCc1cc(F)ccc12 [Example 96, 2-Chloro-3,8-difluoro-10,11,12,13-tetrahydro-19H-5,18-methanodibenzo[f,i]pyrido[2,3-b]-[1,4,8]triazacyclotridecine-15,19(14H)-dione]
Nav1.8, pIC50 (human Nav1.8): 7.5
